Source: patent US20100234379A1, “Dual modulation of endocannabinoid transport and fatty-acid amide hydrolase for treatment of excitotoxicity” (priority 2005, published 2010)

Tested on: ERK and FAK (pERK2, pFAK)
Test: Activation of ERK and FAK (CB1 signaling) in hippocampal slice cultures, immunoblot
Assay type: cell-based, rat
Settings: H 10 μM
Protocol: A: Untreated slices were used to determine basal antigen levels (lane 1), while other slices were exposed to the CB1 agonist R-methanandamide (A) in the absence (lane 2) or presence of the antagonist H (lane 3). B: Integrated optical densities for pERK2 (mean±SEM) were determined by image analysis (ANOVA: P=0.014). C: Treatment groups include control slices (lane 1) and slices treated with the FAAH inhibitor B (lane 2), the transporter inhibitor C (lane 3), the B/C combination (lane 4), or B/C with 20 μM F (lane 5). D: Image analysis data for pERK2 are shown (ANOVA: P=0.015).
Hippocampal slice cultures. Sprague-Dawley rats (Charles River Laboratories; Wilmington, Mass.) were housed following guidelines from National Institutes of Health. […] Slices were maintained in culture for a 15-20-day maturation period before experiments were initiated. Activation of extracellular signal regulated-kinase (ERK) and focal adhesion kinase (FAK). […] Other slices were treated with 100-500 nM B, 10-50 μM C, or a combination of the two in the absence or presence of either H or F (Cal-Biochem). […] Integrated optical density of the bands was determined at high resolution with BIOQUANT software (R & M Biometrics, Nashville, Tenn.). […]

Question: For `Cc1c(C(=O)NN2CCOCC2)nn(-c2ccc(Cl)cc2Cl)c1-c1ccc(I)cc1` [H], which “prevention of the effects of agonist treatment and of B/C potentiation on ERK/FAK activation by CB1 antagonist” value is on record?
Answer: prevented

Same assay, conditions: slices treated 30 min; A 10-50 μM; 100 nM B and 10 μM C applied individually; B/C combination

Question: With `CCCCC/C=C\C/C=C\C/C=C\C/C=C\CCCC(=O)N[C@H](C)CO` [A, R-methanandamide] as the compound, how does the “activation of ERK and FAK (pERK2, pFAK over basal levels)” value read?
Answer: results in the activation of extracellular signal regulated-kinase (ERK) as well as focal adhesion kinase (FAK)

Tested on: hippocampal slice cultures
Test: In vitro excitotoxicity: AMPA insult in cultured hippocampal slices, immunoblot for BDPN and GluR1
Settings: 100 μM AMPA 20 min, drug post-insult, 24 h; B/C 0.5 μM and 50 μM
Protocol: Hippocampal slice cultures were infused with an excitotoxic level of AMPA for 20 min, followed by a 10-min washout period. […] The slices were harvested 24 h post-insult in groups of 6-8 each, along with untreated sister cultures, and assessed by immunoblotting for calpain-mediated spectrin breakdown product BDPN (A, C) and the postsynaptic marker GluR1 (B, D). Representative antigen staining is shown with a protein load control (con) from the same blots. Graphs contain integrated optical densities (mean±SEM) as determined by image analysis.
Chemicals and antibodies. […] Glutamatergic ligands and antagonists were obtained from Tocris (Ellisville, Mo.). […] Hippocampal slice cultures. Sprague-Dawley rats (Charles River Laboratories; Wilmington, Mass.) were housed following guidelines from National Institutes of Health. […] Slices were maintained in culture for a 15-20-day maturation period before experiments were initiated. […] Integrated optical density of the bands was determined at high resolution with BIOQUANT software (R & M Biometrics, Nashville, Tenn.). […] At such time, slices were rapidly harvested, homogenized in lysis buffer, and analyzed by immunoblot for BDPN, GluR1, and protein load control.

Question: With `CCCCC/C=C\C/C=C\C/C=C\C/C=C\CCCC(=O)N[C@H](C)CO` [A, R-methanandamide] as the compound, how does the “reduction of cytoskeletal damage (calpain-mediated spectrin breakdown product BDPN)” value read?
Answer: 72%

Tested on: AMPA-injected dorsal hippocampus of adult Sprague-Dawley rats
Test: not given
Assay type: in vivo, rat
Settings: co-injected with 63 nmol AMPA; 4-7 days post-injection

Question: Which “protection of postsynaptic GluR1 levels (reduction of GluR1 decline), average” value does the source give for `CCCCC/C=C\C/C=C\C/C=C\C/C=C\CCCC(=O)N[C@H](C)CO` [A, R-methanandamide] here?
Answer: 58%

Same assay, conditions: co-injected with 63 nmol AMPA; A 250 nmol; B 0.75 nmol and C 75 nmol

Question: For `CCCCC/C=C\C/C=C\C/C=C\C/C=C\CCCC(=O)N[C@H](C)CO` [A, R-methanandamide], which “reduction of spectrin BDPN evident 4-7 days post-insult” value is on record?
Answer: 78%

Same assay, conditions: co-injected with AMPA, 4-7 days

Question: With `CCCCC/C=C\C/C=C\C/C=C\C/C=C\CCCC(=O)N[C@H](C)CO` [A, R-methanandamide] as the compound, how does the “protection of presynaptic markers (synapsin II, synaptophysin)” value read?
Answer: protected by a similar level

Tested on: not given
Test: not given
Settings: not given

Question: With `O=S(=O)(F)CCCCCCCc1ccc(OCc2ccccc2)cc1` as the compound, how does the melting point read?
Answer: 35 to 38 °C

Question: Which melting point does the source give for `O=S(=O)(F)CCCCCc1ccc(OCc2ccccc2)cc1` here?
Answer: 66 to 68 °C

Question: With `O=S(=O)(F)CCCCCCCc1ccc(O)cc1` as the compound, how does the melting point read?
Answer: 47 to 51 °C

Question: With `O=S(=O)(F)CCCCCc1ccc(O)cc1` as the compound, how does the melting point read?
Answer: 32 to 35 °C

Question: Which melting point does the source give for `O=S(=O)(F)CCCCOc1ccccc1` here?
Answer: 74 to 76 °C

Question: For `COS(=O)(=O)CCCCCCCc1ccc(OCc2ccccc2)cc1`, which melting point is on record?
Answer: 57 to 59 °C

Question: With `O=C(CCCOc1ccc(OCc2ccccc2)cc1)C(F)(F)F` as the compound, how does the melting point read?
Answer: 59 to 61 °C

Question: With `O=C(CCCCCOc1ccccc1OCc1ccccc1)C(F)(F)F` as the compound, how does the melting point read?
Answer: 31 to 32 °C

Question: With `O=C(CCCCOc1ccccc1)C(F)(F)F` as the compound, how does the melting point read?
Answer: 50 to 51 °C

Question: With `O=C(CCCCOc1ccc(OCc2ccccc2)cc1)C(F)(F)F` as the compound, how does the melting point read?
Answer: 95.5 to 96 °C

Question: For `O=C(CCCCCOc1ccc(OCc2ccccc2)cc1)C(F)(F)F`, which melting point is on record?
Answer: 59 to 60 °C

Question: Which melting point does the source give for `O=C(CCCCCCOc1ccc(OCc2ccccc2)cc1)C(F)(F)F` here?
Answer: 82 to 83 °C

Question: Which melting point does the source give for `O=C(CCCOc1ccccc1OCc1ccccc1)C(F)(F)F` here?
Answer: 50 to 51 °C

Question: For `O=C(CCCCOc1ccc(O)cc1)C(F)(F)F`, which melting point is on record?
Answer: 63 to 64 °C

Question: For `O=C(CCCCCCOc1ccc(O)cc1)C(F)(F)F`, which melting point is on record?
Answer: 61 to 62 °C

Question: Which melting point does the source give for `O=C(CCCCOc1ccccc1O)C(F)(F)F` here?
Answer: 51 to 52 °C

Question: Which melting point does the source give for `O=C(NCCCc1ccccc1)NCc1ccccn1` here?
Answer: 89 to 90 °C

Question: With `O=C(NCCCc1ccccc1)Nc1ccccn1` as the compound, how does the melting point read?
Answer: 127 to 128 °C

Question: For `Cc1nnc(C(=O)CCCCCCOc2ccccc2)o1`, which melting point is on record?
Answer: 75 to 77 °C

Question: Which melting point does the source give for `Cc1nnc(C(=O)CCCCCCOc2ccc(OCc3ccccc3)cc2)o1` here?
Answer: 118 to 120 °C

Question: Which melting point does the source give for `Cc1nnc(C(=O)CCCCCCOc2ccc(O)cc2)o1` here?
Answer: 134 to 135 °C

Question: Which melting point does the source give for `O=C1c2ccccc2S(=O)(=O)N1CCCCOc1ccccc1` here?
Answer: 92 to 94 °C

Question: For `O=C1c2ccccc2S(=O)(=O)N1CCCCOc1ccc(OCc2ccccc2)cc1`, which melting point is on record?
Answer: 82 to 84 °C

Question: Which melting point does the source give for `O=C1c2ccccc2S(=O)(=O)N1CCCCOc1ccc(O)cc1` here?
Answer: 107 to 109 °C

Question: For `Oc1cccc(OCCCC(O)(O)C(F)(F)F)c1` (hydrate or solvate), which melting point is on record?
Answer: 76 to 77 °C
